# Source: ChEMBL document CHEMBL1201862, “PubChem BioAssay data set” (2004)
# Activity calls are given as the source filed them.
# Key:
# CHO-K1 = assay: Counterscreen for antagonists of the orexin 1 receptor (OX1R; HCRTR1): Homogeneous time resolved fluorescence (HTRF)-based cell-based dose response assay to identify antagonists of the parental CHO-K1 cell line. [Related pubchem assays (depositor defined):AID434989, AID435008, AID463079, AID485270, AID492963, AID492964, AID492965, AID493232, AID504699, AID504701]; assay type: functional; details: Cricetulus griseus;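 further: potency for inhibition of ATP-stimulated IP1 production as antagonists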
# [1] = Counterscreen for antagonists of the orexin 1 receptor (OX1R; HCRTR1): Fluorescence-based cell-based high throughput dose response assay to identify antagonists of the parental CHO cell line. [Related pubchem assays (depositor defined):AID434989, AID435008, AID463079, AID485270, AID492963, AID492964, AID492965, AID493232, AID504699, AID504701]; assay type: functional
# [2] = molecular target: T1, Orexin/Hypocretin receptor type 1 (Homo sapiens, UniProt O43613); assay: Homogeneous Time Resolved Fluorescence (HTRF)-based cell-based high throughput dose response assay for antagonists of the orexin 1 receptor (OX1R; HCRTR1). [Related pubchem assays (depositor defined):AID434989, AID435008, AID463079, AID485270, AID492963, AID492964, AID492965, AID493232, AID504717, AID504718]; assay type: functional
# T1 sequence (O43613 whole entry): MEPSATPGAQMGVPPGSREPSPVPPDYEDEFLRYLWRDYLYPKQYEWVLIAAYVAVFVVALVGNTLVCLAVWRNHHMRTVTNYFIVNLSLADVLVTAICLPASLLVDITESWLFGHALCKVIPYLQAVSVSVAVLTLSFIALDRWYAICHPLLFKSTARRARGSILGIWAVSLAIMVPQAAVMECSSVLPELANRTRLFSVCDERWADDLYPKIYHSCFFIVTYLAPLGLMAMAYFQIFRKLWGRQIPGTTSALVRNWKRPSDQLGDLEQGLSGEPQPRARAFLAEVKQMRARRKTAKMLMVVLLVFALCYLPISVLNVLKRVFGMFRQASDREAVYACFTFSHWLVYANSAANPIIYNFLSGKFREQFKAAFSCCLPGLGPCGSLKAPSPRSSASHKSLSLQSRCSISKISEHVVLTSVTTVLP
# [3] = molecular target: T1, Orexin/Hypocretin receptor type 1; assay: Fluorescence-based cell-based high throughput dose response assay for antagonists of the orexin 1 receptor (OX1R; HCRTR1). [Related pubchem assays (depositor defined):AID434989, AID435008, AID463079, AID485270, AID492963, AID492964, AID492965, AID493232, AID504717, AID504718]; assay type: functional
# [4] = molecular target: T2, Mannose-6-phosphate isomerase (Homo sapiens, UniProt P34949); assay: MPI inhibition at elevated mannose 6-phosphate – biochemical, fluorescence intensity, high mannose 6-phosphate, primary screen (AID 1220)
# T2 sequence (P34949 whole entry): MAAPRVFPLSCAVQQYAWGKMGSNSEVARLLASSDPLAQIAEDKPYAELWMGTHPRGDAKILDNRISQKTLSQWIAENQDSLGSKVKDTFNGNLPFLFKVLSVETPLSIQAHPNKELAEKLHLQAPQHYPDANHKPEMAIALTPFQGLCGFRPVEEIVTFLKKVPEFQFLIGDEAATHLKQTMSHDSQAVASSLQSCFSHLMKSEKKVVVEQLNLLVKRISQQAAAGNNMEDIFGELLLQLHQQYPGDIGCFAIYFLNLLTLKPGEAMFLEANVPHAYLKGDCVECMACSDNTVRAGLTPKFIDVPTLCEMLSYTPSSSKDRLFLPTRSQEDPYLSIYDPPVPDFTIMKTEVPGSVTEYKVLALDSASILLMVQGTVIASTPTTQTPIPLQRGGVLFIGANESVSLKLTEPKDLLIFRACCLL
# [5] = molecular target: Lysine-specific demethylase 4A (Homo sapiens, UniProt O75164); assay: inhibition of JMJD2A H3K9me3 demethylation – biochemical, DELFIA europium, cherry-picked samples, selectivity assay for GASC-1 inhibitor project, dose response (AID 488840)
# Sequence of Lysine-specific demethylase 4A (O75164 whole entry): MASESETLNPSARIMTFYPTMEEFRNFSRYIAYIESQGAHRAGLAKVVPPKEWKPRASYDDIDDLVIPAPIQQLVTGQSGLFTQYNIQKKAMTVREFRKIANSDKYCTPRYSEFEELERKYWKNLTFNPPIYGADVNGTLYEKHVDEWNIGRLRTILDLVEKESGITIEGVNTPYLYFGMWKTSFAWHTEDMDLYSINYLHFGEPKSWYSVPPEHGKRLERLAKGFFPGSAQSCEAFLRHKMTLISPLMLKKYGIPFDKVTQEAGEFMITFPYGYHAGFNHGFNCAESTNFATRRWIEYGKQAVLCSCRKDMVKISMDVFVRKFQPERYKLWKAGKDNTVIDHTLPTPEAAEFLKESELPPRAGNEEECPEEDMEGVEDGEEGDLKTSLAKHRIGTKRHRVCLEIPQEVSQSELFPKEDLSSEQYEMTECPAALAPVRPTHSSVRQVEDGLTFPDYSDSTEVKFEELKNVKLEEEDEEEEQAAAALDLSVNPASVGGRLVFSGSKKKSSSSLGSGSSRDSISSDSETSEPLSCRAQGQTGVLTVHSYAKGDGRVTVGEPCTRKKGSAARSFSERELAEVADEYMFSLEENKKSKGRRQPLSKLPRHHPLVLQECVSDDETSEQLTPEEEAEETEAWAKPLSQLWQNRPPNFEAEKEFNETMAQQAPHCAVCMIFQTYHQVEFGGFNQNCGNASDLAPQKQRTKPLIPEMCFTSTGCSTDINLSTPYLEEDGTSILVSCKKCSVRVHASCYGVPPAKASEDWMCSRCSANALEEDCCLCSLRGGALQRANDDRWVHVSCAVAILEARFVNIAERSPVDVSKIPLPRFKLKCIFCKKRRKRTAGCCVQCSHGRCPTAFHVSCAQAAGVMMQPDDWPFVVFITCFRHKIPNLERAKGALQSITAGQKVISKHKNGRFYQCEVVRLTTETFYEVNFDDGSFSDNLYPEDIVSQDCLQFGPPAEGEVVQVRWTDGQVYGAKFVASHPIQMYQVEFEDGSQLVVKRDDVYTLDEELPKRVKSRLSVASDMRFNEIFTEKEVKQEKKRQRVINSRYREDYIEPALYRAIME
# BJ [6] = assay: BJ-TERT fibroblast viability loss – cell-based, RAS-independent, luminescence, dose response (AID 1933); assay type: functional; details: Homo sapiens
# BJ [7] = assay: cells; assay type: functional, cell-based; details: Homo sapiens
# [8] = viability of PTEN-deleted HCT116 cells – cell-based, HCT116 PTEN knockout, dose response (AID 1047); assay type: functional;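 further: HCT116 colon tumor cells with PTEN knocked out; cells exposed to compound for 60 hours before readout; potency for loss of cell viability measured by luminescence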
# [9] = viability of HCT116 lacking mutant beta-catenin – cell-based, human colon tumor, dose response (AID 1045); assay type: functional;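 further: HCT116 colon tumor cells with beta catenin knocked out; cells exposed to compound for 60 hours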
# BJ [10] = assay: BJ-TERT-LT-ST fibroblast viability loss – cell-based, RAS-independent, luminescence, dose response (AID 1935); assay type: functional; details: Homo sapiens;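 further: BJ fibroblasts immortalized with TERT plus LT and ST oncogenes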
# [11] = DRD fibroblast viability loss – cell-based, non-viral oncogenic, luminescence, dose response (AID 1934); assay type: functional; details: Homo sapiens
# [12] = THP-1 cell cytotoxicity, dose response, cytotoxicity control for non-replicating M. tuberculosis project (AID 489025); assay type: functional
# [13] = Vero E6 cell cytotoxicity, dose response, cytotoxicity control for non-replicating M. tuberculosis project, secondary assay (AID 492998); assay type: functional, VeroE6; details: Vero C1008
# [14] = molecular target: T3, Heat shock factor protein 1 (Mus musculus, UniProt P38532); assay: enhancement of HSF1-driven luciferase signal – cell-based, NIH3T3, luminescence, dose retest, confirmation (AID 435004); assay type: functional;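 further: stress induced by proteasome inhibitor MG132 added 30 min after compound; luciferase reporter driven by HSF1 response element in NIH3T3 cells; actives raise luminescence as potentiators of the MG132 stress response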
# T3 sequence (P38532 whole entry): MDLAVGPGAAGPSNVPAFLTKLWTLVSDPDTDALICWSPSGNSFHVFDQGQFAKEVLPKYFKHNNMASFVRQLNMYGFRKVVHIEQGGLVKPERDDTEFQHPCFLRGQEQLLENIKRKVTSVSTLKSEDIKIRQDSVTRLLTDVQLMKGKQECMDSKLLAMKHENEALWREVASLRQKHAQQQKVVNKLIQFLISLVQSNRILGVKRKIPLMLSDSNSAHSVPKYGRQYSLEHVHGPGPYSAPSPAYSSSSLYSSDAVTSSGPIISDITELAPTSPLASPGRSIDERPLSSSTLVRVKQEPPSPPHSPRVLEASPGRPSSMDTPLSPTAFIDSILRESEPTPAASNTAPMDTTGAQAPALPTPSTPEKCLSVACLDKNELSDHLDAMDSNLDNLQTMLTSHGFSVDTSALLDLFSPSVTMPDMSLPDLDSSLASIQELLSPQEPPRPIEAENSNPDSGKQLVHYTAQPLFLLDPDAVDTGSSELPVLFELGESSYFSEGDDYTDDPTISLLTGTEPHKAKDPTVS
# [15] = molecular target: T4, Microphthalmia-associated transcription factor (Homo sapiens, UniProt O75030); assay: reducers of TRPM1 reporter luminescence, concentration series – cell-based, SK-MEL-5, cherry-picked, set 3, MITF inhibitor project, dose response (AID 493073); assay type: functional;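 further: SK-MEL-5 melanoma cells with luciferase driven by the MITF target TRPM1 promoter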
# T4 sequence (O75030 whole entry): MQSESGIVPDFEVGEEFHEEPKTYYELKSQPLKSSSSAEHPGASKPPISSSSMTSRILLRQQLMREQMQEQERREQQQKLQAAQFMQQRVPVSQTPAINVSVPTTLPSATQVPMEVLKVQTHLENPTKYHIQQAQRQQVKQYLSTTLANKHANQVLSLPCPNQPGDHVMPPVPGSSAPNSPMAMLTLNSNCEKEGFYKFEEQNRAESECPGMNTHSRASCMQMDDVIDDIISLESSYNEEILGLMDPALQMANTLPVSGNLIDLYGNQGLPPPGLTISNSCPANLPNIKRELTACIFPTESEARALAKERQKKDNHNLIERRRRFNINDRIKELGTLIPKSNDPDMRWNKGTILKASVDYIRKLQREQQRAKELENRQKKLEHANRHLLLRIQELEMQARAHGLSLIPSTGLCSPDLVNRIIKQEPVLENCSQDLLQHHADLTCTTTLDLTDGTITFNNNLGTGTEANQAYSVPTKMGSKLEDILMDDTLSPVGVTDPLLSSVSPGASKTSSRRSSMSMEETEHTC
# cells = assay type: functional
# Vero = assay: cells; assay type: functional, cell-based; details: Chlorocebus sabaeus
# Caspase-6 = molecular target: T5, Caspase-6 (Homo sapiens, UniProt P55212); assay: inhibition of CASP6 peptide cleavage – biochemical, VEID-R110 fluorescence, cherry-pick, dose response (AID 720632)
# T5 sequence (P55212 whole entry): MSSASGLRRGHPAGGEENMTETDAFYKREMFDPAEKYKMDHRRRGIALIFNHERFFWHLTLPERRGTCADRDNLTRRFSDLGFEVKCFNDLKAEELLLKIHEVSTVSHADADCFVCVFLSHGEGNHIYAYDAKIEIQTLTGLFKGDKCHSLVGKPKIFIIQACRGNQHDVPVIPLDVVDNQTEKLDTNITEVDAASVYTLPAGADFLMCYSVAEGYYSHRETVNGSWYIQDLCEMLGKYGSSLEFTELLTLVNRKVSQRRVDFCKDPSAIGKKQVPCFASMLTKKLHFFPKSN
# HEK293 [16] = assay: cells; details: Homo sapiens
# HEK293 [17] = assay: cells; details: Homo sapiens; remark: listed apart in the source
# [18] = luciferase reporter signal suppression in cells – H4 neuroglioma cells, luminescence, dose response (AID 1990); assay type: functional, cell-based
# [19] = molecular target: T6, Eukaryotic translation initiation factor 2-alpha kinase 3 (Homo sapiens, UniProt Q9NZJ5); assay: Dose response cell-based high-throughput screening assay to measure PERK inhibition. [Related pubchem assays: 1416 ]; assay type: functional
# T6 sequence (Q9NZJ5 whole entry): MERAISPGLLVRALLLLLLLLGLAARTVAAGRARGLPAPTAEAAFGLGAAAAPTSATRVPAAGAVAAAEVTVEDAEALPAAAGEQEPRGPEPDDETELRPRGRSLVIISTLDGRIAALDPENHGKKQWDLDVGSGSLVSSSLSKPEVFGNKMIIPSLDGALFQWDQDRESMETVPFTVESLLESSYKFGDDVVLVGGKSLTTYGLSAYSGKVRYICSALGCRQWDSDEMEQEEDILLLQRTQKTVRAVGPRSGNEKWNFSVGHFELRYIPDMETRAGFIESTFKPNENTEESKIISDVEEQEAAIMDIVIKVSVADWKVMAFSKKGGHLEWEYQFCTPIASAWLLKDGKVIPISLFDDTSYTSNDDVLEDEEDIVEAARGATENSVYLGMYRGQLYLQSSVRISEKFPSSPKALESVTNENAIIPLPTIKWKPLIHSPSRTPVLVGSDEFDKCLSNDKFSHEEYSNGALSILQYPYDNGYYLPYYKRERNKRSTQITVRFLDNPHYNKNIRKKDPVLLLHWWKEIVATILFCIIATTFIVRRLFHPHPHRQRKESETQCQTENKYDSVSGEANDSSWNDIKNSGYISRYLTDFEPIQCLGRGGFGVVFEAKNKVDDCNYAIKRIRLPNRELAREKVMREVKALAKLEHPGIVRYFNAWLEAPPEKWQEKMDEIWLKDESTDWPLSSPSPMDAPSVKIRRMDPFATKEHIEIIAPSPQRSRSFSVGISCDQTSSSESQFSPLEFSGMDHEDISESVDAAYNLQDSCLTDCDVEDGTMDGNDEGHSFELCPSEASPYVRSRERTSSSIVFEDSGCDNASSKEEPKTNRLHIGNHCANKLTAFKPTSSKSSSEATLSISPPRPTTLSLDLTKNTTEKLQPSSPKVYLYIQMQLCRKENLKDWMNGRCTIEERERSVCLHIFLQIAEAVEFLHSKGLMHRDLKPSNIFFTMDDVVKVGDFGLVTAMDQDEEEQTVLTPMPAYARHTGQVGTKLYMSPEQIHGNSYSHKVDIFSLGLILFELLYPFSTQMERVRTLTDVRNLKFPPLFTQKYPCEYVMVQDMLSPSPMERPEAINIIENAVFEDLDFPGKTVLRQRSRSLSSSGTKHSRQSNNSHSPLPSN
# [20] = Luminescence Cell-Based Dose Response HTS to Identify Inhibitors of 5'UTR Stem-Loop Driven Prion Protein mRNA Translation in H4 Neuroglioblastoma Cells. [Related pubchem assays: 1827 (Project Summary), 1813 (Primary HTS)]; assay type: functional
# [21] = alpha-synuclein stem-loop luciferase translation blockers – H4 neuroglioma cells, luminescence, confirmation (AID 1988); assay type: functional, cell-based
# [22] = molecular target: T6, Eukaryotic translation initiation factor 2-alpha kinase 3; assay: Counterscreen assay for PERK inhibitors: Dose response cell-based high throughput screening assay to measure inhibition of PERK at 6 hours. [Related pubchem assays: 1522, 1416 ]; assay type: functional
# Cytochrome P450 2D6 = Cytochrome P450 2D6 (Homo sapiens, UniProt P10635);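 further: CYP2D6 member of a cytochrome P450 panel assay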
# Sequence of Cytochrome P450 2D6 (P10635 whole entry): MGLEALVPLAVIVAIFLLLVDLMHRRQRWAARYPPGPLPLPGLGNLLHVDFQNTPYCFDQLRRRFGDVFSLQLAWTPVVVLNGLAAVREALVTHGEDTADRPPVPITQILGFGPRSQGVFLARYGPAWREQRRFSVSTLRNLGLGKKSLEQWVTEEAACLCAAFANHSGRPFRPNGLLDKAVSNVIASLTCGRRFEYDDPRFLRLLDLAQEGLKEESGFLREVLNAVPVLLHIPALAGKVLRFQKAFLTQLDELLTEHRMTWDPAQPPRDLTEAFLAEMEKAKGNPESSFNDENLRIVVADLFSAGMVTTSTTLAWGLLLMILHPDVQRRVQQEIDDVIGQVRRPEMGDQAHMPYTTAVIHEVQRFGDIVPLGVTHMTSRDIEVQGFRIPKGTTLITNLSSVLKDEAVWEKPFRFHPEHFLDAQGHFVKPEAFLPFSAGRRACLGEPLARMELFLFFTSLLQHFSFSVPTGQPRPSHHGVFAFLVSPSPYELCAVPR
# Cytochrome P450 2C19 = Cytochrome P450 2C19 (Homo sapiens, UniProt P33261); assay: Cytochrome panel assay with activity outcomes. Panel member name: p450-cyp2c19 Compounds with AC50 equal or less than 10 uM are considered active; assay type: functional
# Sequence of Cytochrome P450 2C19 (P33261 whole entry): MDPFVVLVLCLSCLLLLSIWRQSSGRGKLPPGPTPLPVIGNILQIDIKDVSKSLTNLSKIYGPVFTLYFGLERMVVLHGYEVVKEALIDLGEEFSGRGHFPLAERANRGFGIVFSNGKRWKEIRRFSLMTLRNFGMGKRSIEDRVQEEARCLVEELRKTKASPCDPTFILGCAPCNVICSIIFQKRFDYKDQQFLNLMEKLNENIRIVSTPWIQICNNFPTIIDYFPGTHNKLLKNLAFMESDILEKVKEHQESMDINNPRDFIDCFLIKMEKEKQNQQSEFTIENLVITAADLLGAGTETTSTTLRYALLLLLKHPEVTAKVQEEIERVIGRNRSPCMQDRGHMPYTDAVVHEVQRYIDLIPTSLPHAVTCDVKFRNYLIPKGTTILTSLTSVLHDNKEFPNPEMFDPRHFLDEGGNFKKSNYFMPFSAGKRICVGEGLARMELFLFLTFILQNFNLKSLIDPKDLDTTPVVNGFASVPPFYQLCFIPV
smiles,measurement,setting,value
Cc1ccc(N(CC(=O)NCCc2ccc(Cl)cc2)S(=O)(=O)c2c(C)noc2C)cc1,IC50,CHO-K1,> 66.2 µM (inactive)
same,IC50,[1],> 49.8 µM (inactive)
same,IC50,[2],0.585 µM (active)
same,IC50,[3],2.87 µM (active)
CC(=O)Nc1ccc2c(c1)C(C)(C)C(C)N2C (stereo unspecified),IC50,[4],> 50 µM (not active)
same,AC50,[5],17.9 µM (active)
O=C1c2cc([N+](=O)[O-])cc3cc([N+](=O)[O-])cc(c23)C(=O)N1c1ccccn1,EC50,BJ [6],37.1 µM (active)
same,EC50,BJ [7],54.8 µM (active)
same,EC50,[8],9.92 µM (active)
same,EC50,[9],7.76 µM (active)
same,EC50,BJ [10],> 150 µM (inconclusive)
same,EC50,[11],11.2 µM (active)
same,CC50,[12],17.5 µM (active)
same,CC50,[13],15.2 µM (active)
same,EC50,[14],13.7 µM (active)
same,AC50,[15],7.92 µM (active)
same,IC50,cells,3.43 µM (active)
same,IC50,Vero,16.3 µM (active)
same,AC50,Caspase-6,15.3 µM (active)
same,EC50,HEK293 [16],> 59.7 µM (inactive)
same,EC50,HEK293 [17],> 59.7 µM (inactive)
CC(C)n1nnnc1-c1cc(Cl)cc(Cl)c1,EC50,[18],> 120 µM (not active)
same,EC50,[19],> 55.7 µM (not active)
same,EC50,[20],10.2 µM (active)
same,EC50,[21],> 120 µM (not active)
same,EC50,[22],> 55.7 µM (not active)
same,AC50,Cytochrome P450 2D6,inconclusive
C[N+](C)(N)CCC[N+](C)(C)N,AC50,Cytochrome P450 2C19,inconclusive
same,AC50,Cytochrome P450 2D6,inconclusive
CCc1nn(C(CC)C(=O)NCCc2ccc(OC)cc2OC)c(=O)c2cc3occc3n12 (stereo unspecified),EC50,HEK293 [16],> 59.6 µM (inactive)
same,EC50,HEK293 [17],> 59.6 µM (inactive)
